Columns and labels:
Type in all cases: cell-based
[1] = test system: Alexa Fluor647 labelled human IgE; test: Uptake assay: internalization of Alexa Fluor 647 labelled IgE in wild type HepG2 cells (Example 6); details: equimolar conjugate and AF647 IgE, 2 hours, median cellular AF647 intensity by flow cytometry, normalized to unconjugated parent protein
How it was run: (§1)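 HepG2 cells (wild type or ASGPR1/2 KO) pre-blocked with Fc receptor blocker, then exposed 2 h to conjugate precomplexed equimolar with AF647-labelled human IgE (30 min, room temperature) at 300 nM to 1.23 nM final. Median cellular AF647 by flow cytometry, normalized to unconjugated parent protein.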

[2] = test system: Alexa Fluor647 labelled human IgE; test: Uptake assay: internalization of Alexa Fluor 647 labelled IgE in ASGPR1/2 KO HepG2 cells (Example 6); details: equimolar conjugate and AF647 IgE, normalized to unconjugated parent protein
How it was run: as §1

[3] = test system: LysoLight-labelled human IgE; test: Lysosomal degradation of LysoLight-labelled IgE in HepG2 cells, live cell imaging (Example 7); details: equimolar conjugate:LysoLight IgE, area under the curve of deep red fluorescence over three days, normalized to unconjugated parent protein
How it was run: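 Conjugate precomplexed 30 min at room temperature with equimolar LysoLight-labelled human IgE, added to Fc-receptor-blocked HepG2 cells at final 100–1.23 nM. Red fluorescence, released on lysosomal cathepsin cleavage, imaged hourly for 72 h starting 1 h post-addition; area under the fluorescence–time curve taken as total degradation.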

HepG2 cells = test: Externalization of conjugates from a cell following internalization (cycling), high-throughput format (Example 11); details: 50 nM conjugate 1 hour, stringent washes, Alexa Fluor 647-labelled a-human IgG 1 hour, FACS, normalized to unconjugated parent protein, average of two replicate wells
How it was run: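 25,000 HepG2 cells incubated with conjugate for 1 h at indicated concentrations, then chilled and washed (DPBS, pH 5.2 acetate, pH 2.5 EBSS) to strip surface conjugate. Recycled conjugate captured by 1 μg/ml AF647 anti-human IgG in 37 °C EMEM for 1 h; median AF647 by flow cytometry, mean of two wells.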

human IgE = test: Degradation of initial and subsequent dose of target in HepG2 cells (Example 12, Table 30); details: normalized to unconjugated; for Normalized Fluorescence Post Wash Median Green: after wash, probe-conjugated IgE added for 4 hours, subsequent dose of target; for Normalized Fluorescence Precomplex Median Deep Red: precomplexed equimolar conjugate:IgE (cathepsin-cleavable quenched fluorescent probe) added for 2 hours, initial dose of target
How it was run: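 HepG2 cells exposed 2 h to conjugate precomplexed (30 min, 37 °C, equimolar) with 647-quenched-probe human IgE, acid/ice washed, then given 488-probe IgE without conjugate for 4 h. Median 647 (initial) and 488 (recycled) fluorescence by flow cytometry, normalised to unconjugated parent; mean of two wells.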

recombinant IgE = test: Degradation of super-stoichiometric levels of target in HepG2 cells (Example 13, Table 31); details: 1 nM conjugate and 25 nM IgE for three days, (A-B)/C IgE depleted relative to conjugate, average of two replicate wells
How it was run: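 HepG2 cells in EMEM/10% FBS were incubated with 1 nM conjugate plus 25 nM recombinant IgE for 72 h. IgE in medium at start and end quantified by MSD/ELISA-type assay; value is molar equivalents IgE depleted per conjugate, (initial − day-3 IgE)/conjugate concentration, mean of two wells.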

SMILES | Normalized Fluorescence 3.7 nM WT [1] | Normalized Fluorescence 100 nM WT [1] | Normalized Fluorescence 100 nM ASGPR KO [2] | Normalized Fluorescence 3.7 nM [3] | Normalized Fluorescence 100 nM [3] | Normalized Fluorescence (HepG2 cells) | Normalized Fluorescence Post Wash Median Green (human IgE) | Normalized Fluorescence Precomplex Median Deep Red (human IgE) | Average Degradation (Molar equivalents) (recombinant IgE)
CC(=O)N[C@@H]1[C@@H](O)[C@@H](O)[C@@H](CO)O[C@@H]1CCCOCCOCCNC(=O)NCCCC(CCCNC(=O)NCCOCCOCCC[C@H]1O[C@H](CO)[C@H](O)[C@H](O)[C@H]1NC(C)=O)(CCCNC(=O)NCCOCCOCCC[C@H]1O[C@H](CO)[C@H](O)[C@H](O)[C@H]1NC(C)=O)NC(=O)NCCOCCOCCOCCN(C)C(=O)CBr [Compound 2316] | 68.4 | 314.3 | 1.1 | 13.4 | 3.7 | 45.7 | 3.5 | 3.8 | 5.7
CC(=O)N[C@@H]1[C@@H](O)[C@@H](O)[C@@H](CO)O[C@@H]1CCCOCCOCCNC(=O)NCCCC(C)(CCCNC(=O)NCCOCCOCCC[C@H]1O[C@H](CO)[C@H](O)[C@H](O)[C@H]1NC(C)=O)NC(=O)NCCOCCOCCOCCNC(=O)c1ccc(N2C(=O)C=CC2=O)cc1 (stereo partly drawn) [Compound 2318, N,N′-((2R,2′R,3R,3′R,4R,4′R,5R,5′R,6R,6′R)-(16-(3-(1-(4-(2,5-dioxo-2,5-dihydro-1H-pyrrol-1-yl)phenyl)-1-oxo-5,8,11-trioxa-2-azatridecan-13-yl)ureido)-16-methyl-11,21-dioxo-4,7,25,28-tetraoxa-10,12,20,22-tetraazahentriacontane-1,31-diyl)bis(4,5-dihydroxy-6-(hydroxymethyl)tetrahydro-2H-pyran-2,3-diyl))diacetamide] | 44.1 | 159.1 | 1.0 | 4.1 | 2.1 | 27.4 | 2.0 | 2.4 | 4.2
CC(=O)N[C@@H]1[C@@H](O)[C@@H](O)[C@@H](CO)O[C@@H]1CCCOCCOCCNC(=O)NCCOCCOCCOCCOCCOCCNC(=O)c1ccc(N2C(=O)C=CC2=O)cc1 [Compound 2319-C, N-(29-((2R,3R,4R,5R,6R)-3-acetamido-4,5-dihydroxy-6-(hydroxymethyl)tetrahydro-2H-pyran-2-yl)-19-oxo-3,6,9,12,15,23,26-heptaoxa-18,20-diazanonacosyl)-4-(2,5-dioxo-2,5-dihydro-1H-pyrrol-1-yl)benzamide] | 2.3 | 16.0 | 1.4 | 1.1 | 1.0 | 5.0 | 1.1 | 1.2 | 2.1
O=C(CCOCCOCCOCCNS(=O)(=O)c1ccc(N2C(=O)C=CC2=O)cc1)NC(CCCNC(=O)NCCOCCOCCCc1cncc(N[C@H]2CO[C@H](CO)[C@H](O)[C@@H]2O)n1)(CCCNC(=O)NCCOCCOCCCc1cncc(N[C@H]2CO[C@H](CO)[C@H](O)[C@@H]2O)n1)CCCNC(=O)NCCOCCOCCCc1cncc(N[C@H]2CO[C@H](CO)[C@H](O)[C@@H]2O)n1 [Compound 2303] | 70.6 | 232.7 | 1.1 | 10.2 | 3.7 | 52.7 | 3.6 | 3.4 | 3.6

Reference: patent publication US20260224714A1, “CYCLING LYSOSOMAL TARGETING ANTIBODY CONJUGATES” (Lycia Therapeutics, Inc., priority 2023, published 2026)
